Columns and labels:
crabgrass = experiment: Test A pre-/postemergence greenhouse test; assay type: in vivo, Digitaria sanguinalis; details: for Plant response rating, Crabgrass, Large: 0 to 100 scale where 0 is no effect and 100 is complete control; for Crabgrass, Large plant response rating: 0 to 100 scale
How it was run: (§1)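 Pots of loam–sand soil sown with the test species are sprayed preemergence on the soil surface; emerged seedlings (1–2 leaves, 2–10 cm) are sprayed postemergence at the same time. The vehicle is a non-phytotoxic solvent mixture with surfactant. Injury is scored visually after ~10 d in greenhouse.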

morningglory = experiment: Test A pre-/postemergence greenhouse test; assay type: in vivo, Ipomoea spp.; details: for Plant response rating, Morningglory: 0 to 100 scale where 0 is no effect and 100 is complete control; for Morningglory plant response rating: 0 to 100 scale
How it was run: as §1

velvetleaf = experiment: Test A pre-/postemergence greenhouse test; assay type: in vivo, Abutilon theophrasti; details: for Plant response rating, Velvetleaf: 0 to 100 scale where 0 is no effect and 100 is complete control; for Velvetleaf plant response rating: 0 to 100 scale
How it was run: as §1

corn = experiment: Test A pre-/postemergence greenhouse test; assay type: in vivo, Zea mays; details: for Plant response rating, Corn: 0 to 100 scale where 0 is no effect and 100 is complete control; for Corn plant response rating: 0 to 100 scale
How it was run: as §1

rice = experiment: Test C flooded paddy test; assay type: in vivo, Oryza sativa; details: Flood
How it was run: (§2)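 Flooded 3 cm over soil; compound into paddy water; depth kept constant. Greenhouse 13–15 d.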

duck salad = experiment: Test C flooded paddy test; assay type: in vivo, Heteranthera limosa; details: Flood
How it was run: as §2

barnyardgrass [1] = experiment: Test C flooded paddy test; assay type: in vivo, Echinochloa crus-galli; details: Flood
How it was run: as §2

barnyardgrass [2] = experiment: Test A pre-/postemergence greenhouse test; assay type: in vivo, Echinochloa crus-galli; details: for Plant response rating, Barnyardgrass: 0 to 100 scale where 0 is no effect and 100 is complete control; for Barnyardgrass plant response rating: 0 to 100 scale
How it was run: as §1

giant foxtail = experiment: Test A pre-/postemergence greenhouse test; assay type: in vivo, Setaria faberi; details: for Plant response rating, Foxtail, Giant: 0 to 100 scale where 0 is no effect and 100 is complete control; for Foxtail, Giant plant response rating: 0 to 100 scale
How it was run: as §1

umbrella sedge = experiment: Test C flooded paddy test; assay type: in vivo, Cyperus difformis; details: Flood
How it was run: as §2

redroot pigweed = experiment: Test A pre-/postemergence greenhouse test; assay type: in vivo, Amaranthus retroflexus; details: for Plant response rating, Pigweed: 0 to 100 scale where 0 is no effect and 100 is complete control; for Pigweed plant response rating: 0 to 100 scale
How it was run: as §1

wheat = experiment: Test A pre-/postemergence greenhouse test; assay type: in vivo, Triticum aestivum; details: for Plant response rating, Wheat: 0 to 100 scale where 0 is no effect and 100 is complete control; for Wheat plant response rating: 0 to 100 scale
How it was run: as §1

[3] = Postemergence, 500 g ai/ha, 0 is no effect, 100 is complete control
[4] = Preemergence, 125 g ai/ha, 0 no effect, 100 complete control
[5] = 62 g ai/ha, scale 0 to 100, 0 no effect, 100 complete control, 13 to 15 days
[6] = 250 g ai/ha, scale 0 to 100, 0 no effect, 100 complete control, 13 to 15 days
[7] = 62 g ai/ha, scale 0 to 100 (0 no effect, 100 complete control)

Compound: [O-][n+]1ccccc1[S+]([O-])Cc1c(C(F)(F)F)nn(CC(F)(F)F)c1Cl (centres unmarked) [Compound 43]
- Plant response rating, Crabgrass, Large (crabgrass; Postemergence, 125 g ai/ha): 70
- Crabgrass, Large plant response rating (crabgrass; [3]): 80
- Crabgrass, Large plant response rating (crabgrass; [4]): 70
- Plant response rating, Crabgrass, Large (crabgrass; Preemergence, 500 g ai/ha): 90
- Plant response rating, Morningglory (morningglory; Postemergence, 125 g ai/ha): 30
- Morningglory plant response rating (morningglory; [3]): 80
- Morningglory plant response rating (morningglory; [4]): 0
- Plant response rating, Morningglory (morningglory; Preemergence, 500 g ai/ha): 80
- Plant response rating, Velvetleaf (velvetleaf; Postemergence, 125 g ai/ha): 20
- Velvetleaf plant response rating (velvetleaf; [3]): 60
- Velvetleaf plant response rating (velvetleaf; [4]): 30
- Plant response rating, Velvetleaf (velvetleaf; Preemergence, 500 g ai/ha): 50
- Plant response rating, Corn (corn; Postemergence, 125 g ai/ha): 30
- Corn plant response rating (corn; [3]): 50
- Corn plant response rating (corn; [4]): 0
- Plant response rating, Corn (corn; Preemergence, 500 g ai/ha): 50
- Plant response rating, Rice (rice; [5]): 0
- Plant response rating, Rice (rice; [6]): 30
- Plant response rating, Ducksalad (duck salad; [5]): 0
- Plant response rating, Ducksalad (duck salad; [6]): 60
- Plant response rating, Barnyardgrass (barnyardgrass [1]; [5]): 0
- Plant response rating, Barnyardgrass (barnyardgrass [1]; [6]): 60
- Plant response rating, Barnyardgrass (barnyardgrass [2]; Postemergence, 125 g ai/ha): 50
- Barnyardgrass plant response rating (barnyardgrass [2]; [3]): 80
- Barnyardgrass plant response rating (barnyardgrass [2]; [4]): 70
- Plant response rating, Barnyardgrass (barnyardgrass [2]; Preemergence, 500 g ai/ha): 90
- Plant response rating, Foxtail, Giant (giant foxtail; Postemergence, 125 g ai/ha): 70
- Foxtail, Giant plant response rating (giant foxtail; [3]): 90
- Foxtail, Giant plant response rating (giant foxtail; [4]): 80
- Plant response rating, Foxtail, Giant (giant foxtail; Preemergence, 500 g ai/ha): 90
- Plant response rating, Sedge, Umbrella (umbrella sedge; [5]): 30
- Plant response rating, Sedge, Umbrella (umbrella sedge; [6]): 70
- Plant response rating, Pigweed (redroot pigweed; Postemergence, 125 g ai/ha): 30
- Pigweed plant response rating (redroot pigweed; [3]): 60
- Pigweed plant response rating (redroot pigweed; [4]): 0
- Plant response rating, Pigweed (redroot pigweed; Preemergence, 500 g ai/ha): 90
- Plant response rating, Wheat (wheat; Postemergence, 125 g ai/ha): 40
- Wheat plant response rating (wheat; [3]): 60
- Wheat plant response rating (wheat; [4]): 40
- Plant response rating, Wheat (wheat; Preemergence, 500 g ai/ha): 70

Compound: Cn1nc(C(F)(F)F)c(CS(=O)(=O)c2cc(C(C)(C)C)cc[n+]2[O-])c1OCC(F)(F)F [Compound 72]
- Plant response rating, Crabgrass, Large (crabgrass; Postemergence, 125 g ai/ha): 0
- Crabgrass, Large plant response rating (crabgrass; [3]): 60
- Crabgrass, Large plant response rating (crabgrass; [4]): 80
- Plant response rating, Crabgrass, Large (crabgrass; Preemergence, 500 g ai/ha): 100
- Plant response rating, Morningglory (morningglory; Postemergence, 125 g ai/ha): 0
- Morningglory plant response rating (morningglory; [3]): 40
- Morningglory plant response rating (morningglory; [4]): 0
- Plant response rating, Morningglory (morningglory; Preemergence, 500 g ai/ha): 60
- Plant response rating, Velvetleaf (velvetleaf; Postemergence, 125 g ai/ha): 0
- Velvetleaf plant response rating (velvetleaf; [3]): 40
- Velvetleaf plant response rating (velvetleaf; [4]): 0
- Plant response rating, Velvetleaf (velvetleaf; Preemergence, 500 g ai/ha): 90
- Plant response rating, Corn (corn; Postemergence, 125 g ai/ha): 0
- Corn plant response rating (corn; [3]): 0
- Corn plant response rating (corn; [4]): 0
- Plant response rating, Corn (corn; Preemergence, 500 g ai/ha): 50
- Plant response rating, Rice (rice; [7]): 0
- Plant response rating, Rice (rice; [6]): 0
- Plant response rating, Ducksalad (duck salad; [7]): 0
- Plant response rating, Ducksalad (duck salad; [6]): 75
- Plant response rating, Barnyardgrass (barnyardgrass [1]; [7]): 0
- Plant response rating, Barnyardgrass (barnyardgrass [1]; [6]): 0
- Plant response rating, Barnyardgrass (barnyardgrass [2]; Postemergence, 125 g ai/ha): 0
- Barnyardgrass plant response rating (barnyardgrass [2]; [3]): 60
- Barnyardgrass plant response rating (barnyardgrass [2]; [4]): 40
- Plant response rating, Barnyardgrass (barnyardgrass [2]; Preemergence, 500 g ai/ha): 100
- Plant response rating, Foxtail, Giant (giant foxtail; Postemergence, 125 g ai/ha): 10
- Foxtail, Giant plant response rating (giant foxtail; [3]): 60
- Foxtail, Giant plant response rating (giant foxtail; [4]): 100
- Plant response rating, Foxtail, Giant (giant foxtail; Preemergence, 500 g ai/ha): 100
- Plant response rating, Sedge, Umbrella (umbrella sedge; [7]): 0
- Plant response rating, Sedge, Umbrella (umbrella sedge; [6]): 70
- Plant response rating, Pigweed (redroot pigweed; Postemergence, 125 g ai/ha): 20
- Pigweed plant response rating (redroot pigweed; [3]): 60
- Pigweed plant response rating (redroot pigweed; [4]): 60
- Plant response rating, Pigweed (redroot pigweed; Preemergence, 500 g ai/ha): 90
- Plant response rating, Wheat (wheat; Postemergence, 125 g ai/ha): 0
- Wheat plant response rating (wheat; [3]): 60
- Wheat plant response rating (wheat; [4]): 30
- Plant response rating, Wheat (wheat; Preemergence, 500 g ai/ha): 70
